The results in this text go back to patent publication US8835378B2, “Multi-domain amphipathic helical peptides and methods of their use” (The United States of America as represented by the …, priority 2004, dated 2014).

Entries after “also recorded” stand apart in the source; their conditions may differ.

The subject of series [1] is HeLa cells transfected with only a hygromycin-resistant control plasmid (control cells). Put plainly: Cholesterol and phospholipid efflux from control cells. Type of series: cell-based, human. Particulars: for cholesterol and phospholipid efflux from control cells (in words): 18 hours. How it is done: (§1) Percentage efflux was calculated after subtracting the radioactive counts in the blank media (αMEM plus 1 mg/ml of BSA), and expressed as the percent of total radioactive counts removed from the cells during the efflux period.
(§2) Cell fixation was performed by a 10 minute treatment with 3% paraformaldehyde in phosphate buffered saline (PBS), followed by three washes with blank media. Lactate dehydrogenase (LDH) release from cells into the media was measured enzymatically (Roche Diagnostics, Indianapolis, Ind.) and expressed, after subtraction of LDH released into blank media, as the percentage of total cell LDH. Total cell LDH was determined after cell solubilization with 1% Triton X-100.

Series [2] concerns HeLa cells stably transfected with human ABCA1 cDNA (ABCA1 cells). The experiment in a line: Cholesterol and phospholipid efflux from ABCA1 transfected cells. The format is cell-based. As to the method: as §1, §2
Series [3] deals with Tangier disease fibroblast cell line with a truncated non-functional ABCA1 transporter. Put plainly: Cholesterol efflux from Tangier disease fibroblasts. The format is cell-based, human. Particulars: 10 μg/ml, 18 hour. How it is done:
(§3) FIG. 5 is a graph illustrating ABCA1-independent efflux of cholesterol from Tangier disease fibroblasts. Normal skin fibroblasts (open bars) and Tangier disease skin fibroblasts (solid bars) were examined for their ability to efflux cholesterol over an 18 hour period when treated with 10 μg/ml apoA-I (A), 10 μg/ml L-37pA (L), and 10 μg/ml D-37pA (D). Results are expressed as the mean of triplicates±1 SD.
(§4) In order to confirm that the residual lipid efflux from the control cells to L-37pA and D-37pA (see FIG. 1) was not due to a low level of endogenous ABCA1, a Tangier disease fibroblast cell line with a truncated non-functional ABCA1 transporter (Remaley et al., Proc. Natl. Acad. Sci. USA 96:12685-12690, 1999) was evaluated for lipid efflux (FIG. 5). […] Thromb. Vasc. Biol. 17:1813-1821, 1997.

The subject of series [4] is ABCA1 cells. The experiment in a line: Two-step competitive binding of radiolabled L-37pA to ABCA1 cells. Also noted: species or system human. Particulars: 8 μM, the maximum concentration tested; 4° C. As to the method:
FIGS. 7A-7B are a pair of graphs illustrating the competitive binding of L-37pA peptide to ABCA1 transfected cells and control cells. ABCA1 cells (FIG. 7A) and control cells (FIG. 7B) were incubated for 3 hours at 4° C. with the indicated concentration of the competitor proteins [L-37pA (triangle), D-37pA (open square), apoA-I (closed circle), L2D-37pA (star), and L3D-37pA (open circle)] and were then washed and incubated for 1 hour at 4° C. with 1 μg/ml of radiolabled L-37pA peptide. Results are expressed as the mean of triplicates±1 SD.
The L-37pA peptide was labeled with ^125I using iodine monochloride. Confluent cells grown on 12-well plates were incubated for 3 hours at 4° C. with the indicated concentration of the unlabeled competitor peptide in αMEM media plus 10 mg/ml of BSA (FIG. 7). […] Cells were washed three times, and cell bound counts were determined after solubilization with 0.1 N NaOH.
A two-step sequential competitive binding assay was performed in order to prevent any potentially interfering interaction of the radiolabled peptide with the competitor proteins (Mendez et al., J. Clin. Invest. 94:1698-1705, 1994). The cells were first incubated with the competitor proteins for 3 hours, washed, and then the cell binding of the radiolabled L-37 peptide was measured. […]

Series [5] relates to Normal skin fibroblasts. Put plainly: Cholesterol efflux from normal skin fibroblasts. The format is cell-based, human. Particulars: 10 μg/ml, 18 hour. As to the method:
as §3, §4

In series [6] the test system is ABCA1 cells and control cells. The experiment in a line: Cell morphology by light microscopy during efflux experiments. The format is cell-based, human.

As to apolipoprotein A-I [apoA-I], the “cholesterol efflux time course from control cells (in words)” value in series [1] (10 μg/ml, 30 hour efflux period) was “no significant increase above background”. Besides, the “cholesterol and phospholipid efflux from control cells (in words)” value in series [1] was “do not efflux significant amounts of cholesterol and phospholipid; also recorded: unable”. The “cholesterol and phospholipid efflux from control cells (in words)” value in series [1] (listed as apoA-1) is recorded as “did not cause lipid efflux from control cells”. Besides, the “time at which cholesterol efflux from ABCA1 cells was first detectable” value in series [2] (10 μg/ml) worked out at 2 h. Also, the “effect of fixation of ABCA1 cells on cholesterol efflux (in words)” value in series [2] (10 μg/ml, 18 hours, fixation with 3% paraformaldehyde) was “completely blocked”. Besides, in series [2] (18 hours), the “cholesterol and phospholipid efflux from ABCA1 cells (in words)” value is on record as “do so after transfection with ABCA1”; the “protein concentration at which lipid efflux began to show saturation” value is around 10 µg/mL. Also, in series [2] (corresponds to 10 μg/ml), the “molar concentration at which lipid efflux began to show saturation” value was 0.36 µM. Moreover, the “cholesterol efflux from Tangier disease fibroblasts” value in series [3] is on record as “did not efflux significant amounts of cholesterol”. For the same substance, the “binding of labeled L-37pA to ABCA1 cells blocked by competitor” value in series [4] is given as “approximately 30%”. Also, the “cholesterol efflux from normal fibroblasts” value in series [5] was “effluxed cholesterol”. In addition, the “effect on cell morphology” value in series [6] was “no morphologic effect was observed”.
